Results on four molecules are retold here after patent US20080220446A1, “Method for Detecting and/or Removing Protein and/or Peptide Comprising a Cross-Beta Structure From an Aqueous Solution Comprising a Protein” (priority 2005, published 2008).

For one assay, the system named is platelets. Put plainly: Aggregometric assay with washed platelets. The format is cell-based, human. Particulars: 200 μM. Here is the method: The presence of protein(s) and/or peptide(s) with amyloid-like misfolded protein conformation on activated blood platelets was tested with washed platelets in an aggregometric assay. Freshly drawn human aspirin free blood was mixed gently with citrate buffer to avoid coagulation. Blood was spinned for 15 minutes at 150*g at 20° C. and supernatant was collected; platelet rich plasma (PRP). […] After spinning down the platelets upon centrifugation for 15 minutes at 330*g at 20° C., the pellet was resuspended in HEPES-Tyrode buffer pH 6.5. Prostacyclin was added to a final concentration of 10 ng/ml, and the solution was centrifuged for 15 minutes at 330*g at 20° C., with a soft brake. The pellet was resuspended in HEPES-Tyrode buffer pH 7.2 in a way that the final platelet number was adjusted to 200,000/μl. Platelets were kept at 37° C. for at least 30 minutes, before use in the assays, to ensure that they were in the resting state.
For the aggregometric assays, 400 μl platelet solution was added to a glass tube with 100 μl containing the agonist of interest, fibrinogen and CaCl2. Final concentrations of fibrinogen and CaCl2 were 0.5 mg/ml and 3 mM, respectively. A stirring magnet was added and the apparatus (Whole-blood aggregometer, Chrono-log, Havertown, Pa., USA) was blanked. Aggregation was followed in time by measuring the absorbance of the solution, that will decrease in time upon platelet aggregation. As a positive control, 0.5 U/ml thrombin was used, or TRAP. Aggregation was followed for 10 minutes. Influence of 200 μM Thioflavin T, 200 μM Congo red or 1 μM tPA on platelet aggregation was analyzed.

Assay [1] addresses T1, LRP cl-IV binding to BSA-AGE (Bos taurus, UniProt P02769).
T1 construct: made in house; host or cells: HEK293E/S (LRP cl-IV, culture supernatant)
The experiment in a line: ELISA, interference with LRP cl-IV binding to BSA-AGE. Also noted: species or system human. The settings on record: concentration series, 50 times diluted LRP cl-IV medium. Here is the method: To test whether amyloid-like crossbeta structure binding compounds tPA, Congo red, Thioflavin T and Thioflavin S interfere with LRP cl-IV binding to BSA-AGE, concentration series of the potential inhibitory amyloid binding moieties were tested in the presence of 50 times diluted medium containing LRP cl-IV. The following inhibitors were used: tPA, Congo red, Thioflavin T (ThT) and Thioflavin S (ThS). As a control to tPA, K2P tPA, which lacks the amyloid-like misfolded protein binding finger domain, was included in the analyses. The influence of tPA and K2P tPA was tested in the presence of 10 mM ε-amino caproic acid to avoid binding of the kringle2 domain of tPA and K2P tPA to lysine- and arginine residues. Binding buffer and K2P tPA serve as negative controls in these inhibition studies. The concentration series was measured in triplicate, the values averaged and standard deviations calculated. Background signals obtained with buffer-coated wells were subtracted. Signals obtained with binding of LRP cluster IV to BSA-AGE was set arbitrarily to a reference binding of 100% and signals obtained with the concentration series of misfolded protein binding moieties and K2P tPA were calculated based on this set reference.
Background: An ELISA detects its analyte on a solid surface through an enzyme-linked reagent.

The subject of assay [2] is tPA binding to amyloid-like aggregates. Particulars: ELISAs; patent application P57716EP00 and unpublished data; cited from earlier work.
The target in a further assay is T2, Aβ (Homo sapiens, UniProt P05067, E693Q).
T2 construct: Human amyloid-β (Ap) (1-40) Dutch type
Put plainly: Binding of Aβ from solution to immobilized ellagic acid. The settings on record: Nunc Maxisorp, Aβ 100 μg/ml, background subtracted. Here is the method: (§1) To test the ability of ellagic acid to bind to misfolded proteins, ellagic acid was immobilized at 100 μg/ml in the wells of a 96-wells Greiner Microlon high binding plate and a Nunc Maxisorp plate. Ellagic acid was coated in 100 mM NaHCO3 pH 9.6, 50 μp/well, 1 h at room temperature with agitation. As a control for subtraction of background signals of binding of misfolded proteins to wells without ellagic acid, wells were coated with buffer only. After blocking of the plates, wells were overlayed with solutions of 0.1/1/10 μg/ml Hb-AGE or 10/100 μg/ml Aβ, in binding buffer (PBS/0.1% Tween20). After washing, binding of Hb-AGE was assessed by overlaying wells with 1 μg/ml hybridoma antibody 4B5, which binds to glycations (^1), followed by RAMPO. Binding of Aβ was visualized using 500× diluted anti-Aβ antibodies (mouse antibody beta-amyloid Clone 6F/3D #M0872, lot 00003503, DAKOCytomation; β-amyloid (H-43) SC-9129, 200 μg/ml rabbit polyclonal IgG, Santa Cruz Biotechnology) and RAMPO/SWARPO in a 1:1 ratio. Finally, wells were overlayed with OPD/H2O2 solution, and H2SO4, before absorbance readings at 490 nm.

In a further assay the target is T3, Hb-AGE (Homo sapiens, UniProt P68871+P69905).
T3 construct: purchased Sigma-Aldrich H7379
The experiment in a line: Binding of Hb-AGE from solution to immobilized ellagic acid. Particulars: Hb-AGE 10 μg/ml, background subtracted. The protocol:
as §1

The target of assay [3] is T4, tPA binding to immobilized Hb-AGE (Homo sapiens, UniProt P68871+P69905).
T4 construct: purchased tPA: Boehringer Ingelheim (Actilyse); Hb: Sigma-Aldrich Hb: H7379
Put plainly: ELISA, influence of ellagic acid on tPA binding to immobilized Hb-AGE. The protocol: Determination of the influence of ellagic acid on the binding of a suboptimal concentration of tPA to a refined concentration of immobilized Hb-AGE. Parameter: a fixed concentration of tPA, in PBS with 0.1% (v/v) Tween20, 10 mM εACA and 10% DMSO, mixed with ellagic acid. As a positive control, tPA in binding buffer with 10% DMSO was used. This binding was set to 100% and values obtained after co-incubation of Hb-AGE with tPA with ellagic acid, were scaled accordingly. Binding experiments were performed in single wells, in a duplicate experiment. Binding data obtained with this duplicate experiment was averaged. Enhancement of tPA binding was arbitrarily set to values>100%. Inhibition of tPA binding to misfolded Hb-AGE was arbitrarily set to values smaller than 50%. With the chosen experimental lay-out, it can not be distinguished whether ellagic acid influences the interaction between tPA and Hb-AGE by binding to Hb-AGE only or by binding to tPA only or by binding to both tPA and Hb-AGE.
In a next series of experiments, the ability of ellagic acid that interacts with tPA and/or Hb-AGE, to bind to immobilized fb-AGE, heat-denatured misfolded ovalbumin and amyloid-β was analyzed. In a first experiment, the coated misfolded Hb-AGE was first incubated with ellagic acid. After washing, tPA binding was assessed. Similar binding assays are performed with misfolded OVA and Aβ. […]

The next assay deals with T5, tPA binding to DOVA (Gallus gallus, UniProt P01012).
T5 construct: purchased tPA: Boehringer Ingelheim (Actilyse); OVA: Sigma OVA: A-7641
T5 sequence (P01012 2-386 limits assumed): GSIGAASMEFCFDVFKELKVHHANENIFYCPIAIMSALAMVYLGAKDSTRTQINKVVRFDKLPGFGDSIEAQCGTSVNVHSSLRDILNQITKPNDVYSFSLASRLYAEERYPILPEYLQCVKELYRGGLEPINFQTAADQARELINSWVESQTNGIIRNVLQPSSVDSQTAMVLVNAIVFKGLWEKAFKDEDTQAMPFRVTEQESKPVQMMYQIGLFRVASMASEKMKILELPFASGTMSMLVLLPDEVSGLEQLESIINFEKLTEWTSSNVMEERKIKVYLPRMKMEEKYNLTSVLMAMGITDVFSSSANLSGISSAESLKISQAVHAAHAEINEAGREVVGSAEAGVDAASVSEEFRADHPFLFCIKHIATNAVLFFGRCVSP
The experiment in a line: ELISA, influence of ellagic acid on tPA binding to immobilized misfolded ovalbumin. Here is the method:
In a next series of experiments, the ability of ellagic acid that interacts with tPA and/or Hb-AGE, to bind to immobilized fb-AGE, heat-denatured misfolded ovalbumin and amyloid-β was analyzed. In a first experiment, the coated misfolded Hb-AGE was first incubated with ellagic acid. After washing, tPA binding was assessed. Similar binding assays are performed with misfolded OVA and Aβ. Finally, concentration series of ellagic acid are used in the binding studies.
Ellagic acid was co-incubated with 0.5 nM tPA. Controls: 1 mM ThT with 0.5 nM tPA, 0.5 mM CR with 0.5 nM tPA, 0.5 nM tPA without compound and buffer without tPA. Next, coated ELISA plates were first -pre-incubated with ellagic acid (for 30 minutes) followed by tPA incubation (for 30 minutes). For similar ELISA's with DOVA and Aβ(1-40) E22Q, 1 μg/ml DOVA or Aβ was coated and overlayed with 80 nM tPA. Subsequently, DOVA or Aβ coated wells and buffer-coated control wells were first incubated with 500 μg/ml ellagic acid, followed by an overlay with tPA.

A further assay addresses T6, fibronectin F4,5 (Homo sapiens, UniProt P02751).
T6 construct: human fibronectin finger 4,5 (Fn F4,5) fragment; made in house; host or cells: HEK293E
Put plainly: Affinity determination ELISA, fibronectin F4,5 on coated (mis)folded proteins. The format is binding. Particulars: coated protein as labelled. An excerpt: (§2) Synthetic genes of human BiP, human fibronectin finger 4,5 (Fn F4,5) fragment, and human tissue-type plasminogen activator finger EGF (tPA F-EGF) fragment were ordered from Geneart (Regensburg, Germany). These DNA constructs were digested using BamHI and NotI, and ligated into vector pABC674 (ABC-expression facility, Utrecht University, The Netherlands), which contains a carboxy-terminal FLAG-tag—His-tag. HEK293E cells were transiently transfected with these constructs using the polyethylene-imine method, and grown for 5-6 days.
(§3) Denatured proteins and their native controls BSA (Sigma, A7906), glycated BSA, Hb (Sigma, H7605), glycated Hb, ovalbumin (Sigma, A6741), heat-denatured misfolded ovalbumin, human γ-globulins (Sigma, G4386), heat-denatured misfolded γ-globulins, alkyl-γ-globulins, lysozyme (ICN Biochemicals, 100831) and alkyl-lysozyme were coated on ELISA plates (Greiner Microlon high-binding, 655092) in 50 mM NaHCO3-buffer pH 9.6. The plates were blocked using Blocking reagent (Roche 1112589). […] Bound protein is detected by the FLAG-tag using 1:3000 anti-FLAG-HRP (Sigma A-8592) in PBS-T, or by 1:1000 Ni-NTA-HRP (Qiagen 34530) in PBS-T. The HRP reaction Is performed using the TMB substrate (Biosource 4501103 or Tebu Bio 101TMB100-500), stopped using 10% H2SO4 and absorbance was measured at 450 nm.

A further assay has as its target T7, BiP (Homo sapiens, UniProt P11021).
T7 construct: made in house; host or cells: HEK293E
Put plainly: Affinity determination ELISA, BiP on coated (mis)folded proteins. The settings on record: coated protein as labelled. The format is binding.
Source text: as §2, §3

T4 sequence (P69905 2-142 limits assumed): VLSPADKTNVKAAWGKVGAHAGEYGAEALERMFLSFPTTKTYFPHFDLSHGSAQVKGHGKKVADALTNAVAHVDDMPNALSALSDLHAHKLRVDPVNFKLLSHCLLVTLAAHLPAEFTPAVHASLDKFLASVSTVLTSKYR
T4 sequence (P68871 2-147 limits assumed): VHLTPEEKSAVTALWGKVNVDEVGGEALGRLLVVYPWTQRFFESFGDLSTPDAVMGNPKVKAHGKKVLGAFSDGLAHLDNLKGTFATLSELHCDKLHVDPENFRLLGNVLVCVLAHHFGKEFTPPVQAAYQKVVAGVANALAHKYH
T3 sequence (P69905 2-142 limits assumed): as the sequence (P69905 2-142 limits assumed) above
T3 sequence (P68871 2-147 limits assumed): as the sequence (P68871 2-147 limits assumed) above
T6 sequence (P02751 182-276 limits assumed): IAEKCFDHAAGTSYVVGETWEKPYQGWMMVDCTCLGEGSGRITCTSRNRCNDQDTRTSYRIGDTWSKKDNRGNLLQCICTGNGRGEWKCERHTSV
T1 sequence (P02769 25-607): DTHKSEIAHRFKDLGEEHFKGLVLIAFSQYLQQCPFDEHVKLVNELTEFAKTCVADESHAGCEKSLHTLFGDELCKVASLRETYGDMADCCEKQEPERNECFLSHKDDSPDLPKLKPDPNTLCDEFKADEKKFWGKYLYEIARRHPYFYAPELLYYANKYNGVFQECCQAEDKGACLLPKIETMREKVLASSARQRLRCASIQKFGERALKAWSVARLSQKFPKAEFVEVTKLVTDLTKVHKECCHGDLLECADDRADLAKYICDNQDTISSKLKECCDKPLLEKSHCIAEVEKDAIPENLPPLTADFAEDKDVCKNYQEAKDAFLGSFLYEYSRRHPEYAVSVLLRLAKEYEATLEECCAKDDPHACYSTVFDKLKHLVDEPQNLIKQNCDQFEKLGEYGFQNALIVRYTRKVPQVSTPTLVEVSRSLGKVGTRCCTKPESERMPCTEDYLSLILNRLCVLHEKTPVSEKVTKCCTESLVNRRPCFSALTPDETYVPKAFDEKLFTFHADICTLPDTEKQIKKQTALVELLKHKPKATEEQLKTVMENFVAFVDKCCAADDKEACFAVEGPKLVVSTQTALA
T7 sequence (P11021 19-654): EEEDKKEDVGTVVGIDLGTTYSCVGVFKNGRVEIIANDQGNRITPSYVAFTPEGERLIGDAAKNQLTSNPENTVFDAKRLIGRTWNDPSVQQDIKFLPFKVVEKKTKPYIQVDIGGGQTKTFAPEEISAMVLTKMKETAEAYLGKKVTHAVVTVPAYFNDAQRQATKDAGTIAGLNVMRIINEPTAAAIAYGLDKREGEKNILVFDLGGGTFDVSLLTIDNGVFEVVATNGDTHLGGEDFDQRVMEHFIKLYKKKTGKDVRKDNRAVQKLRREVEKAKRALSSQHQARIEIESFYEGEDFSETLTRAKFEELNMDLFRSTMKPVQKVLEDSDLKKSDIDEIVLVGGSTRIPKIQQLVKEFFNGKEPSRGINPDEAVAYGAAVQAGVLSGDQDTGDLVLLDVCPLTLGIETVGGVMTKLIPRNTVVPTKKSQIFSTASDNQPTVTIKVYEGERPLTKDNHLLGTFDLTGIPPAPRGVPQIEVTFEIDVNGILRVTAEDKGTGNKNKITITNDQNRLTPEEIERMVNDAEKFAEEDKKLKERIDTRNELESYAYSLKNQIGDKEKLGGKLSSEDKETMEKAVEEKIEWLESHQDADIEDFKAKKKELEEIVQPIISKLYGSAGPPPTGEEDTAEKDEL

For the molecule `Cc1ccc2c(c1)sc(-c1ccc(N(C)C)cc1)[n+]2C.[Cl-]` [ThT, Thioflavin T], the “inhibition of platelet aggregation” value with platelets is on record as “up to 45%”. In addition, the “influence on binding of LRP cl-IV to BSA-AGE” value in assay [1] is on record as “do not interfere”. Besides, the “competition for tPA binding to amyloid-like aggregates” value in assay [2] is recorded as “did not inhibit tPA binding at all”.
With `O=c1oc2c(O)c(O)cc3c(=O)oc4c(O)c(O)cc1c4c23` [ellagic acid], the Signal on Aβ is reported as 0.054 a.u; on Hb-AGE (Greiner Microlon), 0.13 a.u; on Hb-AGE (Nunc Maxisorp) it was 0.15 a.u. Further, the “influence on tPA binding to Hb-AGE” value in assay [3] (ELISA) is given as “stimulator of tPA binding”. In addition, the “direct interaction with immobilized misfolded protein” value in assay [3] (pre-incubation of coated Hb-AGE or misfolded OVA, then tPA) is given as “binds directly to misfolded protein”. Besides, the “influence on tPA binding to DOVA” value at tPA binding to DOVA is “stimulator of tPA binding”.
As to “Freshly dissolved lysozyme: lysozyme (ICN Biochemicals)”, the “affinity for fibronectin F4,5” value with fibronectin F4,5 is “high affinity”.
As for “heat-denatured BSA: heat-denatured bovine serum albumin”, the “binding of BiP” value in the assay with BiP is “not”.
